The text below walks through data of US6828315B1, “1-Amino triazoloc4,3-a! quinazoline-5-ones and/or -5-thiones inhibiting phosphodiesterase IV” (Warner-Lambert LLC, priority 1999, dated 2004).

The target of data set [1] is type 4 phosphodiesterases (PDE4). Briefly: Inhibition of the phosphodiesterase (PDE4), enzymatic preparation from line U937. Format: biochemical. To be noted: PDE4 from cytosolic preparation of human cell line U937. Here is the method:
The capacity of the formula (I) compounds of the invention to inhibit the cyclic nucleotide phosphodiesterases is evaluated by their Cl50 measurement (necessary concentration to inhibit 50% of enzymatic activity).
The type 4 phosphodiesterases are obtained from a cytosolic preparation extracted from the human origin cellular line U937 according to a method adapted from T. J. Torphy and al., 1992, J.Pharm.Exp. Ther. 263: 1195-1205
The other classes of phosphodiesterases are obtained after partial purification FPLC on Mono Q column. (anion exchange column) according to a method adapted from Lavan B. E., Lakey T., Houslay M. D. Biochemical Pharmacology, 1989, 38(22), 4123-4136., and from Silver P. J and al., 1988, Eur.J. Pharmacol. 150: 85-94, either, from human origin cellular lines for PDE 1 (monocytar line TPH1) and PDE5 (line MCF7 issued from an adenocarcinoma), or from dog aorta for PDE 3, or for the human PDE3A, from gene cloning in insect cells SF21 in baculovirus, according to a method adapted from Luckow, V. A. and al., 1991 in Recombinant DNA Technology&Applications.,eds. Prokop, Bajpai,R. K.&Ho,C. S., pp97-152. The enzymatic activity measurement of the different PDE classes, and in particular the PDE 4, is performed according to a method adapted from W. J. Thompson and al. 1979, Advances in Cyclic Nucleotide Research, Vol. 10: 69-92, ed. G. Brooker and al. Raven Press, NY.
For the Cl50 determination, the enzymatic activity is measured in the presence of inhibitor within concentration margins of 0.1 to 100 μM.
The following table illustrates the PDE4 inhibitory activity from enzymatic preparation obtained from the line U937.

Data set [2] deals with TNFα production by human leukocytes. The data set can be described thus: Inhibition of TNFα production by human leukocytes stimulated by lipopolysaccharid. Format: cell-based. To be noted: Leukocyte; LPS-stimulated human leukocytes in 75% human serum; TNFα by ELISA after 15-18 hours. On the procedure: This test aims to evaluate capacity of the compounds of the invention to inhibit TNFα (tumor necrosis-α) production by human leukocytes in the presence of high human serum concentration (75%). […] The test described here is based on the use of human leukocytes cultivated in 75% of human serum. It had been previously documented that these conditions simulate the observed situation when TNFα dosage is performed in human blood.
The compounds to test are dissolved into 20 mM (sometimes 6 mM) of DMSO. 100 μl of DMSO are distributed into 7 wells of a a 96 well microtiter plate (wells B to H). 150 μl of the compound solution are distributed into line A wells. 50 μl are then sequentially transferred 7 times. 20 μl of this serial dilutions of compounds are sequentially transferred twice in wells containing 180 μl of RPMI 1640 (Gibco). 50 μl of these dilutions are then transferred in wells where cells will be added.
Each test includes a series of eight wells without LPS (100% of inhibition), eight wells with LPS (0% of inhibition) and a series of Rolipram dilutions in order to enable comparison of the tests between each other and then to evaluate their variability.
A leukocyte vial is unfrozen in bain-marie (37° C.), its content is transferred into a 15 ml tube containing 10 ml of RPMI added with 5% of human serum (RPMI-5% HS). The cells are sedimented (800 g, 6 minutes, 4° C.), resuspended in 10 ml of the same medium and counted by dilution in Trypan blue solution. After centrifugating (800 g, 6 minutes, 4° C.), the cells are resuspended to 2×10^6/ml in human serum.
To 50 μl aliquots of different dilutions of compounds, 100 μl of cells are added. The plates are then incubated 30 minutes at 37° C., then 50 μl of solution 4 μg/ml of LPS prepared in human serum are added. The plates are incubated for the night at 37° C.
After incubation for 15-18 hours, 90 μl of growth supernatant are taken and transferred into rounded-bottom microtiter wells. The TNFα presence is then evaluated by ELISA (Pharmingen) by using 50 μl of supernatant. The protocol described by the manufacturer is strictly applied.

The subject of data set [3] is TNFα production in plasma. The data set can be described thus: In vivo TNFα model in Wistar rat. To be noted: po, 1.5 h, 10 mg/kg p.o. 30 min before LPS i.p., plasma TNFα 90 min after LPS, male Wistar rats, read-out: % Inhibition to 10 mg/kg. An excerpt:
The TFNα is a cytokin playing a central role in inflammation mechanisms. Its production may be induced by injection of lipopolysaccharid (LPS). It has been shown that the intracellular AMPc increase, produced in particular by PDE4 inhibitors, decreases the TNFα production in in vitro and in vivo models. Therefore it matters here to quantify in vivo anti-inflammatory potential of the compounds of the invention, administrated by oral route (p.o.) by measuring inhibition of TNFα production in plasma in rat, the latter having received a intraperitoneal injection (i.p.) of lipolysaccharid (LPS). The treatment by the compounds of the invention or the carrier is administrated by oral route in male Wistar rats, 30 min. before LPS injection. The rats are sacrificed 90 min. after LPS stimulation, the blood is harvested on EDTA and TNFα concentration is measured in each plasma sample.

`CN(C)c1nnc2n(Cc3ccc(C#N)cc3)c(=O)c3cc(Br)ccc3n12` [Compound 79, 4-(7-Bromo-1-dimethylamino-5-oxo-5H-[1,2,4]triazolo[4,3-a]quinazolin-4-ylmethyl)-benzonitrile] yielded a melting point of 207 °C. Also, the IC50 in data set [1] was 0.14 µM. The same compound registered an IC50 in data set [2] of 5.2 µM. Moreover, the change in vivo at 10 mg/kg in data set [3] is -72%.
The matching figures for `COc1ccc(Cn2c(=O)c3cc(C)ccc3n3c(N4CCCC4)nnc23)cc1OC` [Compound 94, 4-(3,4-Dimethoxy-benzyl)-7-methyl-1-pyrrolidin-1-yl-4H-[1,2,4]triazolo[4,3-a]quinazolin-5-one]: 184 °C, 0.029 µM, 6.3 µM and -87%.
In turn, `Cc1ccc2c(c1)c(=O)n(Cc1cccnc1)c1nnc(N3CCCCCC3)n21` [Compound 91, 1-Azepan-1-yl-7-methyl-4-pyridin-3-ylmethyl-4H-[1,2,4]triazolo[4,3-a]quinazolin-5-one] displayed a melting point of 175 °C. The change in vivo at 10 mg/kg in data set [3] was -70%.
As to `Cc1ccc2c(c1)c(=O)n(Cc1ccc(C#N)cc1)c1nnc(N(C)C)n21` [Compound 101, 4-(1-Dimethylamino-7-methyl-5-oxo-5H-[1,2,4]triazolo[4,3-a]quinazolin-4-ylmethyl)-benzonitrile], the melting point is 201 °C. For the same compound, the midpoint of inhibition in data set [2], the IC50, lay at 8.6 µM. Besides, the change in vivo at 10 mg/kg in data set [3] is -80%.
`N#Cc1ccc(Cn2c(=O)c3cc(Br)ccc3n3c(N4CCCC4)nnc23)cc1` [Compound 46, 4-(7-Bromo-5-oxo-1-pyrrolidin-1-yl-5H-[1,2,4]triazolo[4,3-a]quinazolin-4-ylmethyl)-benzonitrile] returned a melting point of 116 °C. The compound further showed an IC50 in data set [1] of 0.09 µM. In addition, the change in vivo at 10 mg/kg in data set [3] is -58%.
`Cc1ccc2c(c1)c(=O)n(C/C=C/c1ccccc1)c1nnc(N(C)C)n21` [Compound 103, 1-Dimethylamino-7-methyl-4-((E)-3-phenyl-allyl)-4H-[1,2,4]triazolo[4,3-a]quinazolin-5-one]: the melting point came to 171 °C. This compound returned an IC50 in data set [1] of 0.039 µM. Also, half-maximal inhibition in data set [2] (IC50) required 10.7 µM.
On to `O=c1c2cc(Br)ccc2n2c(N3CCCCCC3)nnc2n1Cc1ccccc1` [Compound 163, 1-(azepan-1-yl)-4-benzyl-7-bromo-4H-[1,2,4]triazolo[4,3-a]-quinazolin-5-one], for which the change in vivo at 10 mg/kg in data set [3] is -64%.
As to `CN(C)c1nnc2n(C/C=C/c3cccnc3)c(=O)c3cc(Br)ccc3n12` [Compound 3, 7-Bromo-1-dimethylamino-4-((E)-3-pyridin-3-yl-allyl)-4H-[1,2,4]triazolo[4,3-a]quinazolin-5-one], the IC50 in data set [1] worked out at 0.079 µM; in data set [2] it was 3.4 µM. Besides, in data set [3], the change in vivo at 10 mg/kg is -98%.
As to `COc1ccc(Cn2c(=O)c3cc(Br)ccc3n3c(N4CCCCCC4)nnc23)cc1OC` [Compound 35, 1-Azepan-1-yl-7-bromo-4-(3,4-dimethoxy-benzyl)-4H-[1,2,4]triazolo[4,3-a]quinazolin-5-one], the melting point came to 185 °C. In addition, the IC50 in data set [1] was determined as 0.02 µM. Further, the change in vivo at 10 mg/kg in data set [3] was -51%.
`Cc1ccc2c(c1)c(=O)n(CC=Cc1ccccc1)c1nnc(N3CCCC3)n21` [Compound 98, 7-Methyl-4-(3-phenyl-allyl)-1-pyrrolidin-1-yl-4H-[1,2,4]triazolo[4,3-a]quinazolin-5-one] returned a melting point of 173 °C. This compound yielded an IC50 in data set [1] of 0.029 µM. The change in vivo at 10 mg/kg in data set [3] was -75%.
Take `COC(=O)c1ccc(Cn2c(=O)c3cc(Br)ccc3n3c(N(C)C)nnc23)cc1` [Compound 81, 4-(7-Bromo-1-dimethylamino-5-oxo-5H-[1,2,4]triazolo[4,3-a]quinazolin-4-ylmethyl)-benzoic acid methyl ester]: the melting point turned out to be 197 °C. Moreover, the IC50 in data set [1] was found to be 0.016 µM.
Regarding `Cc1ccc2c(c1)c(=O)n(Cc1ccc(C#N)cc1)c1nnc(N3CCCC3)n21` [Compound 93, 4-(7-Methyl-5-oxo-1-pyrrolidin-1-yl-5H-[1,2,4]triazolo[4,3-a]quinazolin-4-ylmethyl)-benzonitrile], the melting point was 166 °C. The compound also registered an IC50 in data set [2] of 4.3 µM. Further, the change in vivo at 10 mg/kg in data set [3] is -67%.
Turning to `Nc1ccc2c(c1)c(=O)n(Cc1ccccc1)c1nnc(N3CCCCCC3)n21` [Compound 224, 7-Amino-1-azepan-1-yl-4-benzyl-4H-[1,2,4]triazolo[4,3-a]quinazolin-5-one], the melting point is 240 °C (dec.). The IC50 in data set [1] turned out to be 0.075 µM.
The matching figures for `O=c1c2cc(Br)ccc2n2c(N3CCCC3)nnc2n1Cc1ccc([N+](=O)[O-])cc1` [Compound 48, 7-Bromo-4-(4-nitro-benzyl)-1-pyrrolidin-1-yl-4H-[1,2,4]triazolo[4,3-a]quinazolin-5-one]: 200 °C and 0.025 µM.
On to `O=c1c2cc(Br)ccc2n2c(N3CCCC3)nnc2n1Cc1ccc(Cl)cc1` [Compound 43, 7-Bromo-4-(4-chloro-benzyl)-1-pyrrolidin-1-yl-4H-[1,2,4]triazolo[4,3-a]quinazolin-5-one], for which the melting point came to 105 °C. The IC50 in data set [1] was 0.03 µM.
The matching figures for `CN(C)c1nnc2n(Cc3ccc(CC#N)cc3)c(=O)c3cc(Br)ccc3n12` [Compound 83, [4-(7-Bromo-1-dimethylamino-5-oxo-5H-[1,2,4]triazolo[4,3-a]quinazolin-4-ylmethyl)-phenyl]-acetonitrile]: 230 °C and 0.012 µM.
The matching figures for `O=c1c2cc(Br)ccc2n2c(N3CCCC3)nnc2n1CC=Cc1cccnc1` [Compound 61, 7-Bromo-4-(3-pyridin-3-yl-allyl)-1-pyrrolidin-1-yl-4H-[1,2,4]triazolo[4,3-a]quinazolin-5-one]: 102 °C and 0.011 µM.
The matching figures for `CN(C)c1nnc2n(Cc3ccc(O)cc3)c(=O)c3cc(Br)ccc3n12` [Compound 80, 7-Bromo-1-dimethylamino-4-(4-hydroxy-benzyl)-4H-[1,2,4]triazolo[4,3-a]quinazolin-5-one]: 284 °C and 0.073 µM.
Compound `O=c1c2cc(Br)ccc2n2c(N3CCCCCC3)nnc2n1CC=Cc1ccccc1` [Compound 37, 1-(azepan-1-yl)-7-bromo-4-(3-phenylallyl)-4H-[1,2,4]triazolo[4,3-a]quinazolin-5-one] returned a melting point of 155 °C. In addition, in data set [1], the IC50 turned out to be 0.015 µM.
